Data from US11471674B2, “Electroosmotic convection-enhanced delivery system” (University of Pittsburgh—Of the Commonwealth System of …, priority 2012, dated 2022).

Tests used:
[1] = In vivo electrokinetic infusion via open tube catheter, volume of distribution; conditions: rat thalamus, 25.0 μA for 45 minutes
Procedure: Male Sprague-Dawley rats, with weights ranging from 260 to 290 g, were anesthetized with isoflurane, and wrapped in a 37° C. homeothermic blanket. An incisor bar was set at 0 mm at the interaural line. Rats underwent aseptic stereotactic surgery, whereby bilateral craniotomies were made to position an infusion catheter and counter catheter into the thalami bilaterally (from bregma: 4.0 mm lateral, 1.3 mm posterior, and 5.0 mm below the dura) for volumetric analysis. The capillaries were also implanted into the hippocampi bilaterally (from bregma: 4.0 mm lateral, 1.3 mm posterior, and 2.5 mm below the dura). […]
(§1) After the electrokinetic infusion period, the rats underwent rapid transcardial perfusion with 250 mL of 8% cold paraformaldehyde in PBS. […] Vibratome sectioning was quantitative, with no discarded tissue between slices with a visible fluorophore spot. […] The 300 μm thick coronal slices were mounted onto glass slides and imaged with an inverted fluorescence microscope. Image sequences were acquired and the fluorescent intensity was measured.
The volumes of distribution from the infusions were determined by evaluating the fluorescence intensities amongst the coronal tissue slices. The overall maximum fluorescence intensity (I0) at the infusion catheter implantation site was determined for each rat. […]

[2] = Electrophoretic mobility of infusates; assay type: physicochemical; conditions: N = 3
Source text: As noted above, three solutes of varying molecular weight and electrophoretic mobilities were utilized for in vivo infusions. BODIPY labeled 10 kDa dextran (B10) and TR70 were selected because of their dissimilar molecular weights, their ability to be resolved spectroscopically, and their small electrophoretic mobilities, as shown in Table 1 below (Vd at 10% of I0 calculated as in paragraph 25). The electrophoretic mobility is the ratio of the velocity that a molecule adopts in the presence of an electric field of a particular magnitude. For comparison, the electroosmotic mobility is the velocity that the fluid adopts in the presence of an electric field. The […] is directly proportional to the magnitude of the zeta potential governing the electroosmotic flow which we estimate to be −22.8 mV (Guy, Y. et al., “Determination of zeta-potential in rat organotypic hippocampal cultures.” Biophysical Journal, (2008) 94: 4561-9; Guy et al., “Determination of Zeta-Potential and Tortuosity in Rat Organotypic Hippocampal Cultures from Electroosmotic Velocity Measurements under Feedback Control.” Anal. Chem. (2009) 81:3001-7, both of which are hereby incorporated by reference). The electroosmotic mobility of the extracellular fluid in brain is 1.7×10^−8 m^2/Vs. This is much larger than the electrophoretic mobilities of the two fluorescent dextrans in Table 1. […]

[3] = In vivo electrokinetic infusion via hollow fiber probe, volume of distribution; conditions: rat striatum, 25 μA, 45 minutes
Source text: In the experiments described below, the distal end of the hollow fiber catheter was a hollow fiber having a 280 μm inside and 360 μm outside diameter, and a length of 3-4 mm (724). A 10- or 15-cm long fused silica catheter ([…] and 670 μm outside diameters, 720) directs fluid to the hollow fiber probe. The 100 μm inside diameter infusion catheter 720 was filled with the fluorophore solution of interest, as detailed below, in a glucose-free HEPES-buffered salt solution (GF-HBSS), containing in mM: 143.4 NaCl, 5 HEPES, 5.4 KCl, 1.2 MgSO4, 1.2 NaH2PO4, and 2.0 CaCl2. The probe was placed in a vial containing the same solution (704) through a septum. […]
as §1, with “phosphate buffer solution.” for “PBS.”, “200” for “300”, “microscope.” for “microscope. Image sequences were acquired and the fluorescent intensity was measured.”
The volumes of distribution from the infusions were determined by measuring the fluorescence intensities in each coronal slice. The fluorescent area in each image was determined by counting pixels above a threshold value dictated by the noise level in the background (nonfluorescent portion of the image). […]

[Ru+2].c1ccc(-c2ccccn2)nc1.c1ccc(-c2ccccn2)nc1.c1ccc(-c2ccccn2)nc1 [Ru(bpy)3^2+, tris(2,2′-bipyridyl)ruthenium(II)]
Vd at 10% of I0 ([1]; calculated): 260 µL
Vd at 25% of I0 ([1]; open tube catheter, mean±SEM): 13.0 ± 2.0 µL
Electrophoretic Mobility (μep) [2]: 25.86 ± 0.02 10^−9 m^2/Vs
volume of distribution (fluorescent volume) [3]: 9.0 µL
